Here are results for 45 compounds from US20220306630A1, “AGONISTS OF ROR GAMMAt” (BRISTOL-MYERS SQUIBB COMPANY, priority 2019, published 2022).

For this experiment, the target named is T1, RORgT (Homo sapiens, UniProt P51449).
T1 construct: Gal4 (fusion partner); expressed in transfected cells; host or cells: engineered Jurkat cells (Jurkat pEx/Gal/hRORγ CLBD/HYG pG5luc/blast)
T1 sequence (P51449 267-516): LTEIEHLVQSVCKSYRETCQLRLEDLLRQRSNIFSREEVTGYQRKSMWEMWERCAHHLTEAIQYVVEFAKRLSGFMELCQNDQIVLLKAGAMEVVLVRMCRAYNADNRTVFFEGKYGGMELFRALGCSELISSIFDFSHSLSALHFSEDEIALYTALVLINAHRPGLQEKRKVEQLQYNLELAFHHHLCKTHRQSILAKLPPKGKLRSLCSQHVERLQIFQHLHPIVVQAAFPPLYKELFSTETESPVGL
Briefly: RORgT Gal4 Luciferase Reporter Gene Assay. It counts as cell-based. The note with it: engineered Jurkat cells overexpressing RORgT (LBD or full length) with Gal4 Luc reporter; 18 hours at 37° C.; 40 μM to 0.67 nM; read-out: RORg_GAL4 EC50. As for the experimental part: The compound and the cells were incubated for 18 hours at 37° C. in a cell culture incubator. Cells were then lysed with 15 uL of Steady-Glo Luciferase Assay reagent (Promega EZ550), followed by centrifuging the assay plates at 1500 RPM for 1 minute. Subsequently, the plates were read on the Envision (PerkinElmer). The inhibition of constitutive activity of RORgT achieved by graded concentrations of compound was calculated as a percentage of the luminescence signal window reduction over a control compound.
A general note: A reporter such as luciferase makes a cellular process visible.

Broadly, the EC50 is the concentration at which the effect is half-maximal. In the case of `CC(C)(F)c1cc(Oc2c(Cl)cc(NC(=O)CC3CCN(S(C)(=O)=O)CC3)cc2Cl)cnc1OC(F)F` [Example 29, N-(3,5-dichloro-4-((6-(difluoromethoxy)-5-(2-fluoropropan-2-yl)pyridin-3-yl)oxy)phenyl)-2-(1-(methylsulfonyl)piperidin-4-yl)acetamide], the half-maximal effective concentration (EC50) was 0.0058 µM.

Take `COc1ncc(Oc2c(Cl)ccc(C(=O)N3CCC4(CC3)CN(S(C)(=O)=O)C4)c2Cl)cc1C(C)(C)F` [Example 30, (2,4-dichloro-3-((5-(2-fluoropropan-2-yl)-6-methoxypyridin-3-yl)oxy)phenyl)(2-(methylsulfonyl)-2,7-diazaspiro[3.5]nonan-7-yl)methanone]: the EC50 was 0.216 µM.

Turning to `CCS(=O)(=O)Nc1cc(Cl)c(Oc2ccc(OC)c(C(C)C)c2)c(Cl)c1` [Example 33, N-(3,5-dichloro-4-(3-isopropyl-4-methoxyphenoxy)phenyl)ethanesulfonamide], the EC50 amounted to 4.28 µM.

On to `COc1ccc(Oc2c(Cl)cc(NC(=O)NC(C)C)cc2Cl)cc1C(C)C` [Example 34, 1-(3,5-dichloro-4-(3-isopropyl-4-methoxyphenoxy)phenyl)-3-isopropylurea], for which the EC50 stood at 1.06 µM.

In the case of `COc1ccc(Oc2c(Cl)cc3[nH]c(-c4ccccc4)nc3c2Cl)cc1C(C)C` [Example 35, 4,6-dichloro-5-(3-isopropyl-4-methoxyphenoxy)-2-phenyl-1H-benzo[d]imidazole], the EC50 came to 2.05 µM.

For the compound `COc1ccc(Oc2c(Cl)cc(NC(=N)Cc3cccnc3)cc2Cl)cc1C(C)C` [Example 36, N-(3,5-dichloro-4-(3-isopropyl-4-methoxyphenoxy)phenyl)-2-(pyridin-3-yl)acetimidamide], the EC50 is 0.455 µM.

For `COc1ccc(Oc2c(Cl)cc(NC(=O)Cc3cccnc3)cc2Cl)cc1C1CC1` [Example 37, N-(3,5-dichloro-4-(3-cyclopropyl-4-methoxyphenoxy)phenyl)-2-(pyridin-3-yl)acetamide], the EC50 worked out at 1.12 µM.

Take `COc1ccc(Oc2c(Cl)cc(NC(=O)Cc3ccc(S(C)(=O)=O)cc3)cc2Cl)cc1C(C)C` [Example 38, N-(3,5-dichloro-4-(3-isopropyl-4-methoxyphenoxy)phenyl)-2-(4-(methylsulfonyl)phenyl)acetamide]: the EC50 was 0.03 µM.

As for `COc1ccc(Oc2c(F)cc(NC(=O)Cc3cccnc3)cc2F)cc1C1CC1` [Example 39, N-(4-(3-cyclopropyl-4-methoxyphenoxy)-3,5-difluorophenyl)-2-(pyridin-3-yl)acetamide], the EC50 came to 3.13 µM.

`COc1ccc(Oc2c(F)cc(NC(=O)Cc3cccnc3)cc2F)cc1C(C)C` [Example 40, N-(3,5-difluoro-4-(3-isopropyl-4-methoxyphenoxy)phenyl)-2-(pyridin-3-yl)acetamide]: the EC50 stood at 2.45 µM.

For `COc1ccc(Oc2c(Cl)cc(NC(=O)C[C@H]3CCCN(S(C)(=O)=O)C3)cc2Cl)cc1C(C)C` [Example 44, (R)—N-(3,5-dichloro-4-(3-isopropyl-4-methoxyphenoxy)phenyl)-2-(1-(methylsulfonyl)piperidin-3-yl)acetamide], the EC50 is 0.12 µM.

For `COc1ccc(Oc2c(Cl)cc(NC(=O)CC3CCN(S(C)(=O)=O)CC3)cc2Cl)cc1C(C)C` [Example 45, N-(3,5-dichloro-4-(3-isopropyl-4-methoxyphenoxy)phenyl)-2-(1-(methylsulfonyl)piperidin-4-yl)acetamide], the EC50 stood at 0.018 µM.

For `COc1ccc(Oc2c(Cl)cc(NC(=O)CC3CCN(S(N)(=O)=O)CC3)cc2Cl)cc1C(C)C` [Example 46, N-(3,5-dichloro-4-(3-isopropyl-4-methoxyphenoxy)phenyl)-2-(1-sulfamoylpiperidin-4-yl)acetamide], the EC50 stood at 0.438 µM.

Turning to `COc1ccc(Oc2c(Cl)cc(NC(=O)CN3CCN(S(N)(=O)=O)CC3)cc2Cl)cc1C(C)C` [Example 48, N-(3,5-dichloro-4-(3-isopropyl-4-methoxyphenoxy)phenyl)-2-(4-sulfamoylpiperazin-1-yl)acetamide], the EC50 turned out to be 0.105 µM.

With `Cc1ccc(Oc2c(Cl)cc(NC(=O)Cc3cccnc3)cc2Cl)cc1C(C)C` [Example 49, N-(3,5-dichloro-4-(3-isopropyl-4-methylphenoxy)phenyl)-2-(pyridin-3-yl)acetamide], the EC50 came out at 0.344 µM.

As to `CCOc1ccc(Oc2c(Cl)cc(NC(=O)Cc3cccnc3)cc2Cl)cc1C(C)C` [Example 50, N-(3,5-dichloro-4-(4-ethoxy-3-isopropylphenoxy)phenyl)-2-(pyridin-3-yl)acetamide], the EC50 came out at 0.075 µM.

In the case of `CC1(c2cc(F)cc(Oc3c(Cl)cc(NC(=O)CC4CCN(S(C)(=O)=O)CC4)cc3Cl)c2)CC1` [Example 51, N-(3,5-dichloro-4-(3-fluoro-5-(1-methylcyclopropyl)phenoxy)phenyl)-2-(1-(methylsulfonyl)piperidin-4-yl)acetamide], the EC50 came out at 0.0017 µM.

With `CC1(c2cc(F)cc(Oc3c(Cl)ccc(C(=O)NCC4CCN(S(C)(=O)=O)CC4)c3Cl)c2)CC1` [Example 52, 2,4-dichloro-3-(3-fluoro-5-(1-methylcyclopropyl)phenoxy)-N-((1-(methylsulfonyl)piperidin-4-yl)methyl)benzamide], the EC50 came out at 0.028 µM.

Consider `CC(C)(F)c1cc(F)cc(Oc2c(Cl)cc(NC(=O)Cc3cccc(S(C)(=O)=O)c3)cc2Cl)c1` [Example 53, N-(3,5-dichloro-4-(3-fluoro-5-(2-fluoropropan-2-yl)phenoxy)phenyl)-2-(3-(methylsulfonyl)phenyl)acetamide], for which the EC50 turned out to be 0.04 µM.

With `COc1ccc(Oc2c(Cl)ccc(CNC(=O)Cc3ccc(S(C)(=O)=O)cc3)c2Cl)cc1C(C)C` [Example 54], the EC50 came out at 0.034 µM.

`COc1ccc(Oc2c(Cl)ccc(CNS(=O)(=O)C3CCN(S(C)(=O)=O)CC3)c2Cl)cc1C(C)C` [Example 57]: the EC50 came out at 0.016 µM.

For `COc1ccc(Oc2c(Cl)ccc(NC(=O)CC3CN(S(C)(=O)=O)C3)c2Cl)cc1C(C)C` [Example 58], the EC50 worked out at 0.383 µM.

Consider `COc1ccc(Oc2c(Cl)ccc(CNC(=O)c3ccc(S(N)(=O)=O)cc3)c2Cl)cc1C(C)C` [Example 60], for which the EC50 was 0.139 µM.

Turning to `COc1ccc(Oc2c(Cl)ccc(NC(=O)Cc3ccc(S(N)(=O)=O)cc3)c2Cl)cc1C(C)C` [Example 61], the EC50 amounted to 0.046 µM.

Regarding `COc1ccc(Oc2c(Cl)ccc(CNC(=O)c3ccc(S(C)(=O)=O)cc3Cl)c2Cl)cc1C(C)C` [Example 62], the EC50 was 0.096 µM.

`COc1ccc(Oc2c(Cl)ccc(CNC(=O)C3CCN(S(N)(=O)=O)CC3)c2Cl)cc1C(C)C` [Example 63]: the EC50 was determined as 0.031 µM.

Take `COc1ccc(Oc2c(Cl)ccc(C(=O)N(C)CC3(O)CCN(S(C)(=O)=O)CC3)c2Cl)cc1C(C)C` [Example 64]: the EC50 stood at 0.023 µM.

With `COc1ccc(Oc2c(Cl)ccc(C(=O)N3CCN(S(C)(=O)=O)CC3)c2Cl)cc1C(C)C` [Example 65], the EC50 worked out at 0.069 µM.

As to `COc1ccc(Oc2c(Cl)ccc(N(C)C(=O)C(C)c3ccc(S(C)(=O)=O)cc3)c2Cl)cc1C(C)C` (stereo not drawn) [Example 66], the EC50 was 0.268 µM.

For the compound `COc1ccc(Oc2c(Cl)ccc(C(=O)N(C)Cc3ccc(S(C)(=O)=O)cc3)c2Cl)cc1C(C)C` [Example 67], the EC50 turned out to be 0.116 µM.

For the compound `COc1ccc(Oc2c(Cl)ccc(C(=O)N3CC4(CCN(S(C)(=O)=O)CC4)C3)c2Cl)cc1C(C)C` [Example 68], the EC50 was 0.015 µM.

Turning to `COc1ccc(Oc2c(Cl)ccc(C(=O)NC[C@H]3CC[C@H](C(=O)OC)CC3)c2Cl)cc1C(C)C` [Example 69], the EC50 was found to be 0.481 µM.

For `COc1ccc(Oc2c(Cl)ccc(C(=O)NC[C@H]3CC[C@H](C(=O)O)CC3)c2Cl)cc1C(C)C` [Example 70], the half-maximal effective concentration (EC50) amounted to 0.141 µM.

As for `C=C(C)c1cc(Oc2c(Cl)ccc(C(=O)NCC3CCN(S(C)(=O)=O)CC3)c2Cl)cnc1OC` [Example 71], the EC50 worked out at 0.015 µM.

Regarding `COc1ncc(Oc2c(Cl)ccc(C(=O)NCC3CCN(S(C)(=O)=O)CC3)c2Cl)cc1C(C)C` [Example 72], the EC50 came out at 0.033 µM.

As for `C=C(C)c1cc(Oc2c(Cl)cc(NC(=O)CC3CCN(S(C)(=O)=O)CC3)cc2Cl)cnc1OC` [Example 73], the EC50 came out at 0.018 µM.

Take `COc1ncc(Oc2c(Cl)cc(NC(=O)CC3CCN(C(=O)C(F)(F)F)CC3)cc2Cl)cc1C(C)C` [Example 74]: the EC50 is 0.049 µM.

As for `CC(C)c1cc(F)cc(Oc2c(Cl)ccc(NC(=O)Cc3ccc(S(C)(=O)=O)cc3)c2Cl)c1` [Example 75], the EC50 turned out to be 0.033 µM.

On to `COc1ccc(Oc2c(Cl)ccc(C(=O)NCCc3cccnc3)c2Cl)cc1C(C)C` [Example 76], for which the half-maximal effective concentration (EC50) amounted to 0.922 µM.

As for `COC(=O)CNC(=O)c1ccc(Cl)c(Oc2ccc(OC)c(C(C)C)c2)c1Cl` [Example 77], the EC50 was 0.953 µM.

For `COc1ccc(Oc2c(Cl)ccc(C(=O)N(C)C)c2Cl)cc1C(C)C` [Example 78], the EC50 was found to be 1.05 µM.

`COc1ccc(Oc2c(Cl)ccc(C(=O)NCc3ccc(S(C)(=O)=O)cc3)c2Cl)cc1C(C)C` [Example 79]: the EC50 was determined as 0.018 µM.

With `COc1ccc(Oc2c(Cl)ccc(C(=O)NCCCn3ccnc3)c2Cl)cc1C(C)C` [Example 80], the EC50 worked out at 0.287 µM.

Regarding `COc1ccc(Oc2c(Cl)ccc(C(=O)NCCCCO)c2Cl)cc1C(C)C` [Example 81], the half-maximal effective concentration (EC50) came to 1.31 µM.

Take `COc1ccc(Oc2c(Cl)ccc(C(=O)NCc3cccc(S(C)(=O)=O)c3)c2Cl)cc1C(C)C` [Example 82]: the EC50 came to 7.6 µM.
